From patent US10766917B2, “Nucleotides for the treatment of cancer” (IDENIX PHARMACEUTICALS LLC, priority 2015, dated 2020)

Assays:
Test in all cases: In vitro inhibition, CellTiter-Glo (CTG) assay
Format in all cases: cell-based
NCI-H69 = tested on: NCI-H69
Procedure: (§1) Cells were grown in RPMI-1640 supplemented with L-Glutamine and 10% FBS of the following cell lines:
(§2) CCRF-CEM; HL-60; KG-1; CFPAC-1; MiaPACA-2; BxPC-3; HepG2; MDA-MB-231; HCT-116; A498; and NCI-H69
(§3) 18, 96 well plates of each cell line were seeded with the optimized number of cells per well in a total volume of 50 μper well. The plates were left overnight. Plate wells were seeded with 100 pt media for media control. The following day, cells were exposed to test compounds as described below. At the same time as drug exposure, a CTG assay was conducted on the 18th plate for the 0 hr count.
(§4) The compounds were added to cells and medium already on the plate to give desired final concentrations. 50 μL media were added to cell control wells, and 50 μL of mix added to vehicle control wells. 10 μM Doxorubicin was added to appropriate wells as control. Cells exposed to test compound were incubated at 37° C. for 72 hr followed by a CTG assay.
(§5) At the end of the 72 hr exposure period, plates were removed for a CellTiter-Glo (CTG) assay from a 37° C., 5% CO2 incubator and placed on the bench at room temperature for 30 mins. 100 μL of CellTiter-Glo reagent was added and mixed for 2 mins, followed by a further 10 min incubation at room temperature. Luminescence was recorded using Synergy 4.0.

MiaPACA-2 = tested on: MiaPACA-2
Procedure: as §1, §2, §3, §4, §5

CFPAC-1 = tested on: CFPAC-1
Procedure: as §1, §2, §3, §4, §5

MDA-MB-231 = tested on: MDA-MB-231
Procedure: as §1, §2, §3, §4, §5

BxPC-3 = tested on: BxPC-3
Procedure: as §1, §2, §3, §4, §5

HCT-116 = tested on: HCT-116
Procedure: as §1, §2, §3, §4, §5

A498 = tested on: A498
Procedure: as §1, §2, §3, §4, §5

HepG2 = tested on: HepG2
Procedure: as §1, §2, §3, §4, §5

[1] = Homo sapiens, NCI-H69, 72 h, 72 hr exposure
[2] = Homo sapiens, MIA PaCa-2, 72 h, 72 hr exposure
[3] = Homo sapiens, CFPAC-1, 72 h, 72 hr exposure
[4] = Homo sapiens, MDA-MB-231, 72 hr exposure
[5] = Homo sapiens, BXPC-3, 72 h, 72 hr exposure
[6] = Homo sapiens, HCT-116, 72 h, 72 hr exposure
[7] = Homo sapiens, A498, 72 h, 72 hr exposure
[8] = Homo sapiens, HepG2, 72 h, 72 hr exposure
[9] = Homo sapiens, NCI-H69, 72 hr exposure

Compound	IC50 (NCI-H69; [1])	IC50 (MiaPACA-2; [2])	IC50 (MDA-MB-231; [4])	IC50 (BxPC-3; [5])	IC50 (HCT-116; [6])	IC50 (HepG2; [8])	IC50 (MiaPACA-2; 72 hr exposure)	IC50 (BxPC-3; 72 hr exposure)	IC50 (HCT-116; 72 hr exposure)	IC50 (HepG2; 72 hr exposure)	IC50 (NCI-H69; 72 hr exposure)	IC50 (MDA-MB-231; 72 hr exposure)	IC50 (CFPAC-1; [3])	IC50 (A498; [7])	IC50 (CFPAC-1; 72 hr exposure)	IC50 (A498; 72 hr exposure)	other results
CC(C)(C)SSCCOP(=O)(NCc1ccccc1)OC[C@H]1O[C@@H](n2ccc(N)nc2=O)C(F)(F)[C@@H]1O (single isomer, unassigned) [111 (diastereomer 1)]	10 to 100 µM	–	10 to 100 µM	–	–	–	10 to 100 µM	10 to 100 µM	10 to 100 µM	10 to 100 µM	–	–	–	10 to 100 µM	10 to 100 µM	–	–
CC(C)OC(=O)[C@@H](C)NP1(=O)OC[C@H]2O[C@@H](n3ccc(N)nc3=O)C(F)(F)[C@@H]2O1 (single isomer, unassigned) [101 (diastereomer 2)]	–	1 to 10 µM	–	10 to 100 µM	–	1 to 10 µM	–	–	10 to 100 µM	–	10 to 100 µM	10 to 100 µM	1 to 10 µM	–	–	10 to 100 µM	–
Nc1ccn([C@@H]2O[C@H](COP(=O)(OCc3ccc([N+](=O)[O-])o3)OCc3ccc([N+](=O)[O-])o3)[C@@H](O)C2(F)F)c(=O)n1 [Compound 114, [(2R,3R,5R)-5-(4-amino-2-oxo-pyrimidin-1-yl)-4,4-difluoro-3-hydroxy-tetrahydrofuran-2-yl]methyl bis[(5-nitro-2-furyl)methyl] phosphate]	–	–	10 to 100 µM	–	–	–	–	–	–	–	–	–	–	–	–	–	IC50 (NCI-H69; [9]): 10 to 100 µM; IC50 (MiaPACA-2; Homo sapiens, MIA PaCa-2, 72 hr exposure): < 1 µM; IC50 (CFPAC-1; Homo sapiens, CFPAC-1, 72 hr exposure): < 1 µM; IC50 (BxPC-3; Homo sapiens, BXPC-3, 72 hr exposure): < 1 µM; IC50 (HCT-116; Homo sapiens, HCT-116, 72 hr exposure): 1 to 10 µM; IC50 (A498; Homo sapiens, A498, 72 hr exposure): < 1 µM; IC50 (HepG2; Homo sapiens, HepG2, 72 hr exposure): < 1 µM
CC(C)C(=O)OC[C@@H](C)NP1(=O)OC[C@H]2O[C@@H](n3ccc(N)nc3=O)C(F)(F)[C@@H]2O1 (single isomer, unassigned) [105 (diastereomer 2)]	–	–	–	–	–	–	1 to 10 µM	1 to 10 µM	10 to 100 µM	< 1 µM	10 to 100 µM	10 to 100 µM	–	–	1 to 10 µM	1 to 10 µM	–
CC(C)C(=O)OC[C@@H](C)NP1(=O)OC[C@H]2O[C@@H](n3ccc(N)nc3=O)C(F)(F)[C@@H]2O1 (single isomer, unassigned) [105 (diastereomer 1)]	–	< 1 µM	10 to 100 µM	< 1 µM	–	< 1 µM	–	–	< 1 µM	–	1 to 10 µM	–	< 1 µM	–	–	10 to 100 µM	–
COC(=O)[C@H](CCCCNP1(=O)OC[C@H]2O[C@@H](n3ccc(N)nc3=O)C(F)(F)[C@@H]2O1)NC(=O)OC(C)(C)C (single isomer, unassigned) [106 (diastereomer 2)]	–	–	–	–	–	–	1 to 10 µM	1 to 10 µM	1 to 10 µM	< 1 µM	10 to 100 µM	10 to 100 µM	–	–	1 to 10 µM	10 to 100 µM	–
COC(=O)[C@H](CCCCNP1(=O)OC[C@H]2O[C@@H](n3ccc(N)nc3=O)C(F)(F)[C@@H]2O1)NC(=O)OC(C)(C)C (single isomer, unassigned) [106 (diastereomer 1)]	10 to 100 µM	1 to 10 µM	10 to 100 µM	–	–	< 1 µM	–	10 to 100 µM	10 to 100 µM	–	–	–	1 to 10 µM	10 to 100 µM	–	–	–
CC(C)OC(=O)[C@@H](C)NP1(=O)OC[C@H]2O[C@@H](n3ccc(N)nc3=O)C(F)(F)[C@@H]2O1 (single isomer, unassigned) [101 (diastereomer 1)]	–	–	10 to 100 µM	–	–	–	< 1 µM	10 to 100 µM	1 to 10 µM	< 1 µM	–	–	–	–	< 1 µM	1 to 10 µM	IC50 (NCI-H69; [9]): 10 to 100 µM
CC(C)(C)SSCCOP(=O)(NCc1ccccc1)OC[C@H]1O[C@@H](n2ccc(N)nc2=O)C(F)(F)[C@@H]1O (single isomer, unassigned) [111 (diastereomer 2)]	–	–	–	–	–	–	< 1 µM	1 to 10 µM	< 1 µM	< 1 µM	10 to 100 µM	10 to 100 µM	–	–	< 1 µM	10 to 100 µM	–
CC(C)(C)C(=O)SCCOP1(=O)OC[C@H]2O[C@@H](n3ccc(N)nc3=O)C(F)(F)[C@@H]2O1 (single isomer, unassigned) [104 (diastereomer 2)]	–	–	–	–	–	–	< 1 µM	< 1 µM	1 to 10 µM	< 1 µM	1 to 10 µM	1 to 10 µM	–	–	< 1 µM	< 1 µM	–
CC(C)(C)C(=O)SCCOP1(=O)OC[C@H]2O[C@@H](n3ccc(N)nc3=O)C(F)(F)[C@@H]2O1 (single isomer, unassigned) [104 (diastereomer 1)]	1 to 10 µM	< 1 µM	1 to 10 µM	< 1 µM	1 to 10 µM	< 1 µM	–	–	–	–	–	–	< 1 µM	–	–	10 to 100 µM	–

Continued, in another order:

IC50 (NCI-H69; [1])	IC50 (MiaPACA-2; [2])	IC50 (MDA-MB-231; [4])	IC50 (BxPC-3; [5])	IC50 (HCT-116; [6])	IC50 (HepG2; [8])	IC50 (MiaPACA-2; 72 hr exposure)	IC50 (BxPC-3; 72 hr exposure)	IC50 (HCT-116; 72 hr exposure)	IC50 (HepG2; 72 hr exposure)	IC50 (NCI-H69; 72 hr exposure)	IC50 (MDA-MB-231; 72 hr exposure)	Compound	IC50 (CFPAC-1; [3])	IC50 (A498; [7])	IC50 (CFPAC-1; 72 hr exposure)	IC50 (A498; 72 hr exposure)	other results
10 to 100 µM	10 to 100 µM	10 to 100 µM	10 to 100 µM	10 to 100 µM	1 to 10 µM	–	–	–	–	–	–	COC(=O)[C@H](CC(C)C)NP(=O)(N[C@@H](CC(C)C)C(=O)OC)OC[C@H]1O[C@@H](n2ccc(N)nc2=O)C(F)(F)[C@@H]1O [Compound 109, Methyl (2S)-2-[[[(2R,3R,5R)-5-(4-amino-2-oxo-pyrimidin-1-yl)-4,4-difluoro-3-hydroxy-tetrahydrofuran-2-yl]methoxy-[[(1S)-1-methoxycarbonyl-3-methyl-butyl]amino]phosphoryl]amino]-4-methyl-pentanoate]	1 to 10 µM	10 to 100 µM	–	–	–
< 1 µM	< 1 µM	1 to 10 µM	< 1 µM	< 1 µM	< 1 µM	–	–	–	–	–	–	CC(C)(CO)C(=O)SCCOP(=O)(O)OC[C@H]1O[C@@H](n2ccc(N)nc2=O)C(F)(F)[C@@H]1O [Compound 118]	< 1 µM	< 1 µM	–	–	–
10 to 100 µM	10 to 100 µM	10 to 100 µM	10 to 100 µM	10 to 100 µM	10 to 100 µM	–	–	–	–	–	–	CCCC(CCC)C(=O)Nc1ccn([C@@H]2O[C@@H]3COP(=O)(N[C@H](C)C(=O)OC(C)C)O[C@H]3C2(F)F)c(=O)n1 (single isomer, unassigned) [116 (diastereomer 1)]	10 to 100 µM	10 to 100 µM	–	–	–
10 to 100 µM	10 to 100 µM	10 to 100 µM	10 to 100 µM	10 to 100 µM	10 to 100 µM	–	–	–	–	–	–	CC(C)OP(=O)(OC[C@H]1O[C@@H](n2ccc(N)nc2=O)C(F)(F)[C@@H]1O)OC(C)C [Compound 119]	10 to 100 µM	10 to 100 µM	–	–	–
–	–	–	–	–	–	10 to 100 µM	10 to 100 µM	10 to 100 µM	10 to 100 µM	10 to 100 µM	10 to 100 µM	CCCC(CCC)C(=O)Nc1ccn([C@@H]2O[C@@H]3COP(=O)(N[C@H](C)C(=O)OC(C)C)O[C@H]3C2(F)F)c(=O)n1 (single isomer, unassigned) [116 (diastereomer 2)]	–	–	10 to 100 µM	10 to 100 µM	–
1 to 10 µM	< 1 µM	10 to 100 µM	< 1 µM	1 to 10 µM	< 1 µM	–	–	–	–	–	–	Nc1ccn([C@@H]2O[C@@H]3COP(=O)(O)O[C@H]3C2(F)F)c(=O)n1 [Compound 107, 1-[(4aR,6R,7aR)-7,7-difluoro-2-hydroxy-2-oxo-4,4a,6,7a-tetrahydrofuro[3,2-d][1,3,2]dioxaphosphinin-6-yl]-4-amino-pyrimidin-2-one]	< 1 µM	10 to 100 µM	–	–	–
1 to 10 µM	< 1 µM	10 to 100 µM	1 to 10 µM	< 1 µM	< 1 µM	–	–	–	–	–	–	CCOC(=O)[C@H](CC(C)C)NP(=O)(O)OC[C@H]1O[C@@H](n2ccc(N)nc2=O)C(F)(F)[C@@H]1O [Compound 115, [(2R,3R,5R)-5-(4-amino-2-oxo-pyrimidin-1-yl)-4,4-difluoro-3-hydroxy-tetrahydrofuran-2-yl]methoxy-N-[(1S)-1-ethoxycarbonyl-3-methyl-butyl]phosphonamidic acid]	< 1 µM	10 to 100 µM	–	–	–
